Experiments:
[1] = system: CNS GPCR receptors and ion channels; assay: CNS broad receptors screening, summary statements by receptor family; assay type: binding
[2] = system: BZP Rat Brain Site; assay: NIMH PDSP receptor binding, BZP Rat Brain Site; details: 3H-Flunitrazepam
[3] = biological target: T1, Alpha2B (Homo sapiens, UniProt P18089); assay: NIMH PDSP receptor binding, Alpha2B; details: [3H]Clonidine, read-out: % Inhibition of Binding at 10 µM D-473
T1 construct: purchased NIMH PDSP

[4] = biological target: T2, 5HT2a (Homo sapiens, UniProt P28223); assay: NIMH PDSP receptor binding, 5HT2a; details: [3H]ketanserin, read-out: % Inhibition of Binding at 10 µM D-473
T2 construct: purchased NIMH PDSP

[5] = biological target: T3, H1 (Homo sapiens, UniProt P35367); assay: NIMH PDSP receptor binding, H1; details: [3H]Pyrilamine, read-out: % Inhibition of Binding at 10 µM D-473
T3 construct: purchased NIMH PDSP

[6] = biological target: T4, δ-opioid (Homo sapiens, UniProt P41143); assay: NIMH PDSP receptor binding, δ-opioid; details: [3H]DADLE, read-out: % Inhibition of Binding at 10 µM D-473
T4 construct: purchased NIMH PDSP

[7] = biological target: T5, Alpha1D (Homo sapiens, UniProt P25100); assay: NIMH PDSP receptor binding, Alpha1D; details: [3H]Prazosin, read-out: % Inhibition of Binding at 10 µM D-473
T5 construct: purchased NIMH PDSP

[8] = biological target: T6, M4 (Homo sapiens, UniProt P08173); assay: biochemical; details: read-out: % Inhibition of Binding at 10 µM D-473
T6 construct: purchased NIMH PDSP

[9] = biological target: T7, Alpha1B (Homo sapiens, UniProt P35368); assay: NIMH PDSP receptor binding, Alpha1B; details: [3H]Prazosin, read-out: % Inhibition of Binding at 10 µM D-473
T7 construct: purchased NIMH PDSP

[10] = system: extracellular DA, 5-HT, NE and metabolites in the dorsal lateral striatum (DLS); assay: Microdialysis in dorsal lateral striatum, monoamines and metabolites; assay type: in vivo, rat; details: 10 mg/kg i.p.
Protocol: (§1) Adult male Sprague-Dawley rats (Harlan, Indianapolis, IN) weighing between 250 and 350 g were used for all experiments. Rats were housed in a temperature and humidity controlled room with 12 hr light/dark cycles with food and water available ad libitum. Adequate measures were taken to prevent animal pain and discomfort. All animals were treated as approved by the University of Michigan Unit for Laboratory Animal Medicine (ULAM) and in accordance with the National Institute of Health (NIH) Guidelines for the Care and Use of Laboratory Animals.
(§2) Rats were anesthetized with using an isoflurane vaporizer that was interfaced to a model 963 Ultra Precise stereotaxic instrument with 0.1 mm resolution (David Kopf Instruments, Tujunga, CA). Concentrically designed microdialysis probes (1 mm dialyzing length) were built in house then implanted bilaterally into the dorsal lateral striatum (DLS) and the medial prefrontal cortex (mPFC) according to the following coordinates from bregma and dura (in mm): AP +1, ML +3.3, DV –5.7 and AP +3, ML −0.5, DV −5, respectively (Paxinos and Watson, 2007). […] 1 mm probes were selected for higher spatial resolution and lower tissue damage compared to larger probes. Probes were secured to the skull by acrylic dental cement and metallic screws. Following surgery, rats were allowed to recover and experiments were run 24 hr after probe implantation. Microdialysis probes were flushed at a flow rate of 2 µl/min with aCSF (composition in mM: CaCl2 1.2; KCl 2.7, NaCl 148 and MgCl2 0.85) for 2 hr using a Chemyx Fusion 400 syringe pump (Chemyx, Stafford, TX). Perfusion flow rate was then reduced to 1 µl/min and samples were collected every 10 min. Baseline values were collected for 50 min and then the drug D-473 was injected (10 mg/kg, i.p.) and samples were collected for an additional 2 h. When experiments were completed, animals were euthanized and then brains were extracted and frozen at −80°C until histology.
(§3) Dopamine, norepinephrine (NE), serotonin (5HT), DOPAC, homovanillic acid (HVA) and 5-hydroxyindole acetic acid (5-HIAA) were analyzed using a benozyolation derivitization LC-MS method recently described by our laboratory. Briefly, 10 µl dialysate samples were derivatized by adding 5 µl of 100 mM sodium tetraborate, 5 µl of 2% benzoyl chloride in acetonitrile, and then 5 µl of a stable ^13C benzoylated isotope internal standard mixture was then added to improve quantitation. A Thermo Fisher Accela UHPLC (Waltham, MA) system automatically injected 5 µl of the sample onto a Waters (Milford, MA) HSS T3 reverse phase HPLC column (1 mm X 100 mm, 1.8 µm). Mobile phase A consisted of 10 mM ammonium formate and 0.15% formic acid. Mobile phase B was pure acetonitrile. Analytes were detected by an Thermo Fisher TSQ Quantum Ultra triple quadrupole mass spectrometer operating in multiple reaction monitoring (MRM) mode. The assay limits of detection were (nM in dialysate) for DA, 0.3; NE, 0.2; 5HT, 0.1; HVA, 0.5; DOPAC, 2; and 5HIAA, 5. […] Average standard deviation in above basal levels was 18%.
(§4) All neurochemical data were transformed into percent baseline with baseline values all averaging 100%. Statistical analysis was performed by t-test analysis of every point relative to baseline values (i.e. 100%) using Prism 6 (Graphpad Software Inc, La Jolla, CA). P values <0.05 were considered to be statistically significant.

[11] = system: extracellular DA, 5-HT, NE and metabolites in the medial prefrontal cortex (mPFC); assay: Microdialysis in medial prefrontal cortex, monoamines and metabolites; assay type: in vivo, rat; details: 10 mg/kg i.p.
Protocol: as §1, §2, §3, §4

[12] = biological target: T8, Beta1 (Homo sapiens, UniProt P08588); assay: NIMH PDSP receptor binding, Beta1; details: [125I]Iodopindolol, read-out: % Inhibition of Binding at 10 µM D-473
T8 construct: purchased NIMH PDSP
T8 sequence (P08588 whole entry): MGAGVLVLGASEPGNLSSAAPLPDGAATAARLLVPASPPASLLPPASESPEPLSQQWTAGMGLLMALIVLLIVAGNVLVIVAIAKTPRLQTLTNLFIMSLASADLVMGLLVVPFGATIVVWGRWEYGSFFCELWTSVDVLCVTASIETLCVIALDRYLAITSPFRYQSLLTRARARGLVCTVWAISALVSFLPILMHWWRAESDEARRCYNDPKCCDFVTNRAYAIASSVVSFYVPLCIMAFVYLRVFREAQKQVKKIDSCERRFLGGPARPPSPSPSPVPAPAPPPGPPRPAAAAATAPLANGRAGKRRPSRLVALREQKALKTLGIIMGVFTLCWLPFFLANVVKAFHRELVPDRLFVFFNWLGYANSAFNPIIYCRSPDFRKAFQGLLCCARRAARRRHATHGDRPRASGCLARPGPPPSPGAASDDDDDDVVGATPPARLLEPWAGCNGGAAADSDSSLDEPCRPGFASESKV

T5 sequence (P25100 whole entry): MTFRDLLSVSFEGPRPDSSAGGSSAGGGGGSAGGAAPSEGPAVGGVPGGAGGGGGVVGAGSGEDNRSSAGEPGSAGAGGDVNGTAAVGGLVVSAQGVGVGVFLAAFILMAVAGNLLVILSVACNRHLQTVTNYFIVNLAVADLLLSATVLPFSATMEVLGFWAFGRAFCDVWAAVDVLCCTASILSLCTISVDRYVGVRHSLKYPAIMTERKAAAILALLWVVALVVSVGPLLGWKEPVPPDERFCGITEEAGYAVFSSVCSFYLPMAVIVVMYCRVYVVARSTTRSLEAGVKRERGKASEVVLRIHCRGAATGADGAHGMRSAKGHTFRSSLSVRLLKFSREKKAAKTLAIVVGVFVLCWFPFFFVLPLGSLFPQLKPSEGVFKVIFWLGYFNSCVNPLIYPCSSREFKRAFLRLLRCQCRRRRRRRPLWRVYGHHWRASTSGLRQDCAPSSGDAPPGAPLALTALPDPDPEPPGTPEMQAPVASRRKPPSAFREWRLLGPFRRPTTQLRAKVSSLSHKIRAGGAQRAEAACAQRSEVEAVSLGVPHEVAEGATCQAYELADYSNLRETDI
T2 sequence (P28223 whole entry): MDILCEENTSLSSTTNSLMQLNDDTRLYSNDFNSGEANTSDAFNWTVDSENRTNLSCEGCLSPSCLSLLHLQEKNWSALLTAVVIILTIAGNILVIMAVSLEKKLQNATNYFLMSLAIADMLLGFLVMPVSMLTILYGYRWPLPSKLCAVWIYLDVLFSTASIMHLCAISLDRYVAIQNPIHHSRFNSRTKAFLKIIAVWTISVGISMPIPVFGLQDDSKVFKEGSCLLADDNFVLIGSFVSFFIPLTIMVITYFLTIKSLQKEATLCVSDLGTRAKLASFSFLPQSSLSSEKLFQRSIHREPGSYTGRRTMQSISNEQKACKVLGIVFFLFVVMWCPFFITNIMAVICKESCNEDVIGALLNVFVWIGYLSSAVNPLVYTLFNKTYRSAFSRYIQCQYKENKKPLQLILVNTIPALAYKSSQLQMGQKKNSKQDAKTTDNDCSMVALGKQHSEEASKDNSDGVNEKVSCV
T3 sequence (P35367 whole entry): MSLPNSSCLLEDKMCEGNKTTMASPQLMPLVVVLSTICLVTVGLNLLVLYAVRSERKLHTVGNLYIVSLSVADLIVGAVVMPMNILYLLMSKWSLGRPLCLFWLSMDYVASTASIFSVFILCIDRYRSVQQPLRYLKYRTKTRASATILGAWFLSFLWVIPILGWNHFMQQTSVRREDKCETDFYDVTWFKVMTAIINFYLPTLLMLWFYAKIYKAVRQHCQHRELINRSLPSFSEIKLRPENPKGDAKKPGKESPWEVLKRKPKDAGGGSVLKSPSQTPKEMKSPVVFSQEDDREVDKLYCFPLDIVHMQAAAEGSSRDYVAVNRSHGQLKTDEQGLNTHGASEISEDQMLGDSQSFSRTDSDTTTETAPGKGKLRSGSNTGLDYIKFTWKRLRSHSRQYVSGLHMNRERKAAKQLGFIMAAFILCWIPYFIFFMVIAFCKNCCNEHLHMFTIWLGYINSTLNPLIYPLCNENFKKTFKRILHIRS
T4 sequence (P41143 whole entry): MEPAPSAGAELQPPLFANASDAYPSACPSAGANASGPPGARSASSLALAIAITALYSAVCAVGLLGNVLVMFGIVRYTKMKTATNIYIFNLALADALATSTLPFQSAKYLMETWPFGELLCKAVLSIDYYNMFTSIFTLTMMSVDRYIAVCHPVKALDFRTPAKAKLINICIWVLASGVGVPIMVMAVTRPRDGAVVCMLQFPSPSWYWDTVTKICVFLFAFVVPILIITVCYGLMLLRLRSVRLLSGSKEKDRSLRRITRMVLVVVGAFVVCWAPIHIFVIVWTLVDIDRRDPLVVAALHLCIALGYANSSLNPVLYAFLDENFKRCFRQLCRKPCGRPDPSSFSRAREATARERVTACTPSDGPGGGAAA
T1 sequence (P18089 whole entry): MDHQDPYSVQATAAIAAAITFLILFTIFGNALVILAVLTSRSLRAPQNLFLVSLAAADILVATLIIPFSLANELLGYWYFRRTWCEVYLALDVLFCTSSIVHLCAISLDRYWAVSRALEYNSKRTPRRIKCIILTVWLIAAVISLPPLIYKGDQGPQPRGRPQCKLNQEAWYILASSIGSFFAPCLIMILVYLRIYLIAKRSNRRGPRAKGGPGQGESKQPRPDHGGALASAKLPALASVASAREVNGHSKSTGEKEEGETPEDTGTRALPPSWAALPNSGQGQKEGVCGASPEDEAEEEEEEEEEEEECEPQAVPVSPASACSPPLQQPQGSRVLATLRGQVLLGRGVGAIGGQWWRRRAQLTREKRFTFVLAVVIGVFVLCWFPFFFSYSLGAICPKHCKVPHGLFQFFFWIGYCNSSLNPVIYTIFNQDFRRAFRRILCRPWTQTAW
T6 sequence (P08173 whole entry): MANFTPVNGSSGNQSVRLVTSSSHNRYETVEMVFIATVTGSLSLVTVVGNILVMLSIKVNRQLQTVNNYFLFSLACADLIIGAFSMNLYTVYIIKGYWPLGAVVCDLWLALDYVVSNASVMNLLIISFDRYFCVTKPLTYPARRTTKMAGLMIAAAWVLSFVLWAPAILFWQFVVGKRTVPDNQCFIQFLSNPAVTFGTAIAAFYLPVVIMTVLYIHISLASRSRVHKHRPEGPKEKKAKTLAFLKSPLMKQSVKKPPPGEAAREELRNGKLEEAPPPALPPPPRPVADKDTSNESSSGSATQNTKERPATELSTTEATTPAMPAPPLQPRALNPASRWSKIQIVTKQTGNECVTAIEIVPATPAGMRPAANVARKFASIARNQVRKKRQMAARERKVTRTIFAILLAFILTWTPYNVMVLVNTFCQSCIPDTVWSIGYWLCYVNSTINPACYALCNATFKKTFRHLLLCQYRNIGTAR
T7 sequence (P35368 whole entry): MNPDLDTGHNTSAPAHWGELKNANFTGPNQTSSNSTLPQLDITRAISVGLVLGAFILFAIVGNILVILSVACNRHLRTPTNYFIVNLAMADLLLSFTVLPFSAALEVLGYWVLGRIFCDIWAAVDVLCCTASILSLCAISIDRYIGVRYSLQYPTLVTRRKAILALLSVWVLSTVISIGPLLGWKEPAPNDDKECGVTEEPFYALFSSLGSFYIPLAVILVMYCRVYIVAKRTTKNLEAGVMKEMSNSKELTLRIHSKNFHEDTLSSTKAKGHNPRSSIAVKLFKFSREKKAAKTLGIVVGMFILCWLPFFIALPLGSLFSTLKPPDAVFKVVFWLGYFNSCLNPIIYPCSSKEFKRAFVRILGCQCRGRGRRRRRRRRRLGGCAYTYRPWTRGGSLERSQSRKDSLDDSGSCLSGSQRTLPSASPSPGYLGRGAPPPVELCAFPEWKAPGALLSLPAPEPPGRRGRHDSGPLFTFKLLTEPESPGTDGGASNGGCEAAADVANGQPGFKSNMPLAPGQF

With `COc1ccc(CN[C@@H]2CO[C@H](C(c3ccc(F)cc3)c3ccc(F)cc3)C[C@H]2O)cc1` [Compound D-473, (2S,4R,5R)-2-(bis(4-fluorophenyl)methyl)-5-((4-methoxybenzyl)amino)tetrahydro-2H-pyran-4-ol] the “Affinity for alpha adrenergic or beta adrenergic receptors subtypes” value [1] was “did not show any appreciable affinity”, the “Affinity for muscarinic receptor subtypes” value [1] was “Lack of any affinity” and the “Affinity for opioid receptors, calcium channel and GABA receptor” value [1] was “did not show any affinity”. The Ki ([1]; dopamine and serotonin receptor subtypes other than D1, D5, 5HT2b, read-out: Ki at dopamine and serotonin receptor subtypes (generally)) was greater than 10 µM, the “% Inhibition of Binding at 10 µM D-473” value [2] was −3% and the inhibition at 10 µM [3] was 25.4%. It also gave an inhibition at 10 µM [4] of 16.3%, an inhibition at 10 µM [5] of 2.8% and an inhibition at 10 µM [6] of 42.7%. The inhibition at 10 µM [7] was 41.8%, the inhibition at 10 µM [8] was -16.7% and the inhibition at 10 µM [9] was 16.6%. For the same compound, the “Elevation of 5-HT over the basal level” value [10] was greater than 4 fold, the “Increase in DA” value [10] was 2 fold and the “Increase in NE” value [10] was 2 fold. The “Reduction of DOPAC, maximal” value [10] was 35–40%, the “Reduction of HVA, maximal” value [10] was 20% and the “Extracellular 5-HT at the end of two hours, percent baseline” value ([10]; baseline 100%) was 215%. For the same compound, the “Extracellular 5-HT, maximal, percent baseline” value ([10]; baseline 100%) was 403%, the “Extracellular DA at the end of two hours, percent baseline” value ([10]; baseline 100%) was 129% and the “Extracellular DA, maximal, percent baseline” value ([10]; baseline 100%) was 274%. For the same compound, the “Extracellular NE at the end of two hours, percent baseline” value ([10]; baseline 100%) was 142%, the “Extracellular NE, maximal, percent baseline” value ([10]; baseline 100%) was 238% and the “Reductions in dialysate DOPAC” value ([11]; Figure 8, region not specified) was “up to 35%”. The “Change in the level of 5-HIAA” value ([11]; region not specified (mPFC and DLS studied)) was “did not observe any change”, the “Effect on HVA” value ([11]; mPFC) was “lack of effect” and the “Increase of 5-HT” value ([11]; mPFC) was greater than 3 fold. For the same compound, the “Increase of DA” value ([11]; mPFC) was 4 fold, the “Increase of NE” value ([11]; mPFC) was greater than 5 fold and the “Reduction of DOPAC, maximal” value ([11]; mPFC) was 35–40%. For the same compound, the “Extracellular 5-HT at the end of two hours, percent baseline” value ([11]; mPFC, baseline 100%) was 150%, the “Extracellular 5HT, maximal, percent baseline” value ([11]; mPFC, baseline 100%) was 339% and the “Extracellular DA at the end of two hours, percent baseline” value ([11]; mPFC, baseline 100%) was 122%. The “Extracellular DA, maximal, percent baseline” value ([11]; mPFC, baseline 100%) was 394%, the “Extracellular NE at the end of two hours, percent baseline” value ([11]; mPFC, baseline 100%) was 173% and the “Extracellular NE, maximal, percent baseline” value ([11]; mPFC, baseline 100%) was 547%. The inhibition at 10 µM [12] was 24.6%.
